What was measured:
Details in all cases: 72 h
Caco-2 [1] = experiment: cell viability relative to DMSO; higher = less toxic
Calu-3 [2] = experiment: as above
HepG2 [3] = experiment: as above
U2OS [4] = experiment: as above
Vero E6 [5] = experiment: as above
Caco-2 [6] = experiment: relative viability EC50 (midpoint between 100% and the lowest measured viability); higher = less toxic
Calu-3 [7] = experiment: as above
HepG2 [8] = experiment: as above
U2OS [9] = experiment: as above
Vero E6 [10] = experiment: as above
Caco-2 [11] = experiment: drug sensitivity score (DSS) for viability; higher = more toxic; extreme values may be limits of the assay
Calu-3 [12] = experiment: as above
HepG2 [13] = experiment: as above
U2OS [14] = experiment: as above
Vero E6 [15] = experiment: as above

SMILES | cell viability (Caco-2 [1]; 1 nM) | cell viability (Caco-2 [1]; 10 nM) | cell viability (Caco-2 [1]; 100 nM) | cell viability (Caco-2 [1]; 1000 nM) | cell viability (Caco-2 [1]; 10000 nM) | cell viability (Calu-3 [2]; 1 nM) | cell viability (Calu-3 [2]; 10 nM) | cell viability (Calu-3 [2]; 100 nM) | cell viability (Calu-3 [2]; 1000 nM) | cell viability (Calu-3 [2]; 10000 nM) | cell viability (HepG2 [3]; 1 nM) | cell viability (HepG2 [3]; 10 nM) | cell viability (HepG2 [3]; 100 nM) | cell viability (HepG2 [3]; 1000 nM) | cell viability (HepG2 [3]; 10000 nM) | cell viability (U2OS [4]; 1 nM) | cell viability (U2OS [4]; 10 nM) | cell viability (U2OS [4]; 100 nM) | cell viability (U2OS [4]; 1000 nM) | cell viability (U2OS [4]; 10000 nM) | cell viability (Vero E6 [5]; 1 nM) | cell viability (Vero E6 [5]; 10 nM) | cell viability (Vero E6 [5]; 100 nM) | cell viability (Vero E6 [5]; 1000 nM) | cell viability (Vero E6 [5]; 10000 nM) | relative viability EC50 (Caco-2 [6]) | relative viability EC50 (Calu-3 [7]) | relative viability EC50 (HepG2 [8]) | relative viability EC50 (U2OS [9]) | relative viability EC50 (Vero E6 [10]) | drug sensitivity score (Caco-2 [11]) | drug sensitivity score (Calu-3 [12]) | drug sensitivity score (HepG2 [13]) | drug sensitivity score (U2OS [14]) | drug sensitivity score (Vero E6 [15])
CC(C)N(C[C@H]1O[C@@H](n2cnc3c(N)ncnc32)[C@H](O)[C@@H]1O)[C@H]1C[C@@H](CCc2nc3cc(C(C)(C)C)ccc3[nH]2)C1 [EPZ-5676] | 90.7% | 99.2% | 100% | 97.1% | 101% | 101% | 102% | 95.4% | 104% | 104% | 106% | 94.9% | 89.7% | 105% | 108% | 105% | 97.5% | 101% | 102% | 111% | 106% | 106% | 98.9% | 102% | 106% | > 10 µM | > 10 µM | > 10 µM | > 10 µM | > 10 µM | 0 | 0 | 0 | 0 | 0
Cc1cccc(-c2[nH]c(CNc3ccccc3F)nc2-c2ccc3ncnn3c2)n1 [EW-7197] | 95.7% | 96.4% | 94.1% | 109% | 99.4% | 97.3% | 88.4% | 96.9% | 114% | 105% | 95.1% | 104% | 106% | 103% | 93.3% | 99.1% | 99.4% | 94.4% | 95.5% | 85.5% | 102% | 105% | 102% | 95.4% | 98.7% | > 10 µM | > 10 µM | > 10 µM | > 10 µM | > 10 µM | 0 | 0 | 0 | 0.1 | 0
O=C(NCCN1CCC(n2c(=O)[nH]c3ccccc32)CC1)c1cc2cc(F)ccc2[nH]1 [FIPI] | 95.7% | 101% | 100% | 101% | 106% | 92.2% | 101% | 99.8% | 98% | 96.8% | 90.7% | 110% | 98.2% | 93.7% | 91.1% | 97% | 94% | 100% | 97.4% | 94.8% | 95% | 95.9% | 99% | 96.6% | 103% | > 10 µM | > 10 µM | > 10 µM | > 10 µM | > 10 µM | 0 | 0 | 0 | 0 | 0
C/C(O)=C(\C#N)C(=O)Nc1cc(Br)ccc1Br [LFM-A13] | 99.6% | 99.5% | 90.1% | 100% | 92.1% | 92.8% | 99.6% | 103% | 100% | 94.7% | 105% | 99.7% | 99.5% | 99% | 101% | 102% | 103% | 97.3% | 104% | 96.4% | 112% | 80.5% | 99% | 96.3% | 105% | > 10 µM | > 10 µM | > 10 µM | > 10 µM | > 10 µM | 0 | 0 | 0 | 0 | 0
